{"source": "the supplement of paper PMC10307832", "data": [{"compound": "Cc1nc(C(=O)NCC(=O)O)c(O)c2ccc(Oc3ccccc3)cc12 [FG-4592] + CS(=O)(=O)CCNCc1ccc(-c2ccc3ncnc(Nc4ccc(OCc5cccc(F)c5)c(Cl)c4)c3c2)o1 [Lapatinib] (partner 2 µM)", "assay": "relative viability (nuclei count vs DMSO), 5 days (fraction); higher = more cells survive", "conditions": "first compound 0.08 µM", "summary_of_the_method": "(§1)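 Medians of duplicate plates are given as relative viability. That measure is the nuclei count in treated wells divided by the count in vehicle wells. Counts were taken on 4× images of lung cancer cell lines in 1536-well plates, 5 days after pin-tool dosing the day after seeding with one drug alone or a fixed anchor-drug dose plus five library-drug doses (not always all listed) in √10 steps.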", "values": [{"cell line": "LXF-289", "relative viability": 0.93}, {"cell line": "NCI-H23", "relative viability": 1.09}, {"cell line": "NCI-H1299", "relative viability": 0.969}, {"cell line": "NCI-H647", "relative viability": 1.13}, {"cell line": "CAL-12T", "relative viability": 0.646}, {"cell line": "NCI-H1651", "relative viability": 0.744}, {"cell line": "EPLC-272H", "relative viability": 1.12}, {"cell line": "NCI-H2228", "relative viability": 1.46}, {"cell line": "NCI-H1792", "relative viability": 0.859}, {"cell line": "NCI-H1355", "relative viability": 1.03}, {"cell line": "NCI-H3122", "relative viability": 1.1}, {"cell line": "NCI-H1437", "relative viability": 0.883}, {"cell line": "NCI-H1755", "relative viability": 0.935}, {"cell line": "NCI-H2023", "relative viability": 1.03}, {"cell line": "HCC-15", "relative viability": 0.883}, {"cell line": "NCI-H1793", "relative viability": 0.592}, {"cell line": "PC-14", "relative viability": 0.365}, {"cell line": "EKVX", "relative viability": 0.226}, {"cell line": "LC-2-ad", "relative viability": 0.913}, {"cell line": "NCI-H1563", "relative viability": 0.873}, {"cell line": "NCI-H1944", "relative viability": 0.712}, {"cell line": "NCI-H1975", "relative viability": 0.801}, {"cell line": "RERF-LC-KJ", "relative viability": 0.793}, {"cell line": "ABC-1", "relative viability": 1.11}, {"cell line": "NCI-H358", "relative viability": 0.501}, {"cell line": "NCI-H650", "relative viability": 0.633}, {"cell line": "PC-3 [JPC-3]", "relative viability": 0.446}]}, {"compound": "Cc1nc(C(=O)NCC(=O)O)c(O)c2ccc(Oc3ccccc3)cc12 [FG-4592] + CS(=O)(=O)CCNCc1ccc(-c2ccc3ncnc(Nc4ccc(OCc5cccc(F)c5)c(Cl)c4)c3c2)o1 [Lapatinib] (partner 2 µM)", "assay": "relative viability (nuclei count vs DMSO), 5 days (fraction); higher = more cells survive", "conditions": "first compound 0.253 µM", "summary_of_the_method": "as §1", "values": [{"cell line": "NCI-H1915", "relative viability": 0.933}, {"cell line": "HCC-827", "relative viability": 0.192}, {"cell line": "LXF-289", "relative viability": 0.881}, {"cell line": "NCI-H23", "relative viability": 1.07}, {"cell line": "NCI-H1299", "relative viability": 0.941}, {"cell line": "NCI-H647", "relative viability": 1.01}, {"cell line": "CAL-12T", "relative viability": 0.599}, {"cell line": "NCI-H1651", "relative viability": 0.883}, {"cell line": "EPLC-272H", "relative viability": 0.795}, {"cell line": "NCI-H2228", "relative viability": 0.778}, {"cell line": "NCI-H1792", "relative viability": 0.785}, {"cell line": "NCI-H1355", "relative viability": 0.939}, {"cell line": "NCI-H3122", "relative viability": 0.989}, {"cell line": "NCI-H1437", "relative viability": 0.817}, {"cell line": "NCI-H1755", "relative viability": 1.01}, {"cell line": "NCI-H2023", "relative viability": 0.735}, {"cell line": "HCC-15", "relative viability": 0.706}, {"cell line": "NCI-H1793", "relative viability": 0.468}, {"cell line": "PC-14", "relative viability": 0.317}, {"cell line": "EKVX", "relative viability": 0.213}, {"cell line": "LC-2-ad", "relative viability": 0.915}, {"cell line": "NCI-H1563", "relative viability": 0.829}, {"cell line": "NCI-H1944", "relative viability": 0.759}, {"cell line": "NCI-H1975", "relative viability": 0.788}, {"cell line": "RERF-LC-KJ", "relative viability": 0.816}, {"cell line": "ABC-1", "relative viability": 1.11}, {"cell line": "NCI-H358", "relative viability": 0.413}, {"cell line": "NCI-H650", "relative viability": 1.03}, {"cell line": "PC-3 [JPC-3]", "relative viability": 0.419}]}, {"compound": "Cc1nc(C(=O)NCC(=O)O)c(O)c2ccc(Oc3ccccc3)cc12 [FG-4592] + CS(=O)(=O)CCNCc1ccc(-c2ccc3ncnc(Nc4ccc(OCc5cccc(F)c5)c(Cl)c4)c3c2)o1 [Lapatinib] (partner 2 µM)", "assay": "relative viability (nuclei count vs DMSO), 5 days (fraction); higher = more cells survive", "conditions": "first compound 0.8 µM", "summary_of_the_method": "as §1", "values": [{"cell line": "NCI-H1915", "relative viability": 0.931}, {"cell line": "HCC-827", "relative viability": 0.193}, {"cell line": "LXF-289", "relative viability": 0.937}, {"cell line": "NCI-H23", "relative viability": 0.953}, {"cell line": "NCI-H1299", "relative viability": 0.981}, {"cell line": "NCI-H647", "relative viability": 1.23}, {"cell line": "CAL-12T", "relative viability": 0.492}, {"cell line": "NCI-H1651", "relative viability": 0.741}, {"cell line": "EPLC-272H", "relative viability": 0.586}, {"cell line": "NCI-H2228", "relative viability": 0.84}, {"cell line": "NCI-H1792", "relative viability": 0.908}, {"cell line": "NCI-H3122", "relative viability": 1.03}, {"cell line": "NCI-H1437", "relative viability": 0.8}, {"cell line": "NCI-H1755", "relative viability": 0.945}, {"cell line": "NCI-H2023", "relative viability": 0.407}, {"cell line": "HCC-15", "relative viability": 0.852}, {"cell line": "PC-14", "relative viability": 0.345}, {"cell line": "EKVX", "relative viability": 0.195}, {"cell line": "LC-2-ad", "relative viability": 0.94}, {"cell line": "NCI-H1563", "relative viability": 0.779}, {"cell line": "NCI-H1944", "relative viability": 0.576}, {"cell line": "NCI-H1975", "relative viability": 0.831}, {"cell line": "RERF-LC-KJ", "relative viability": 0.86}, {"cell line": "ABC-1", "relative viability": 1.06}, {"cell line": "NCI-H358", "relative viability": 0.497}, {"cell line": "NCI-H650", "relative viability": 0.744}, {"cell line": "PC-3 [JPC-3]", "relative viability": 0.362}]}, {"compound": "Cc1nc(C(=O)NCC(=O)O)c(O)c2ccc(Oc3ccccc3)cc12 [FG-4592] + CS(=O)(=O)CCNCc1ccc(-c2ccc3ncnc(Nc4ccc(OCc5cccc(F)c5)c(Cl)c4)c3c2)o1 [Lapatinib] (partner 2 µM)", "assay": "relative viability (nuclei count vs DMSO), 5 days (fraction); higher = more cells survive", "conditions": "first compound 2.53 µM", "summary_of_the_method": "as §1", "values": [{"cell line": "NCI-H1915", "relative viability": 0.943}, {"cell line": "HCC-827", "relative viability": 0.18}, {"cell line": "LXF-289", "relative viability": 0.946}, {"cell line": "NCI-H23", "relative viability": 0.772}, {"cell line": "NCI-H1299", "relative viability": 0.954}, {"cell line": "NCI-H647", "relative viability": 1.08}, {"cell line": "CAL-12T", "relative viability": 0.647}, {"cell line": "NCI-H1651", "relative viability": 0.826}, {"cell line": "EPLC-272H", "relative viability": 0.962}, {"cell line": "NCI-H2228", "relative viability": 0.844}, {"cell line": "NCI-H1792", "relative viability": 0.86}, {"cell line": "NCI-H1355", "relative viability": 0.955}, {"cell line": "NCI-H3122", "relative viability": 1.08}, {"cell line": "NCI-H1437", "relative viability": 0.677}, {"cell line": "NCI-H1755", "relative viability": 1.02}, {"cell line": "NCI-H2023", "relative viability": 0.468}, {"cell line": "HCC-15", "relative viability": 0.871}, {"cell line": "NCI-H1793", "relative viability": 0.646}, {"cell line": "PC-14", "relative viability": 0.336}, {"cell line": "EKVX", "relative viability": 0.278}, {"cell line": "LC-2-ad", "relative viability": 0.904}, {"cell line": "NCI-H1563", "relative viability": 1.04}, {"cell line": "NCI-H1944", "relative viability": 0.71}, {"cell line": "NCI-H1975", "relative viability": 0.759}, {"cell line": "RERF-LC-KJ", "relative viability": 0.899}, {"cell line": "ABC-1", "relative viability": 1.08}, {"cell line": "NCI-H358", "relative viability": 0.437}, {"cell line": "NCI-H650", "relative viability": 0.728}, {"cell line": "PC-3 [JPC-3]", "relative viability": 0.402}]}, {"compound": "Cc1nc(C(=O)NCC(=O)O)c(O)c2ccc(Oc3ccccc3)cc12 [FG-4592] + CS(=O)(=O)CCNCc1ccc(-c2ccc3ncnc(Nc4ccc(OCc5cccc(F)c5)c(Cl)c4)c3c2)o1 [Lapatinib] (partner 2 µM)", "assay": "relative viability (nuclei count vs DMSO), 5 days (fraction); higher = more cells survive", "conditions": "first compound 8 µM", "summary_of_the_method": "as §1", "values": [{"cell line": "NCI-H1915", "relative viability": 1.04}, {"cell line": "HCC-827", "relative viability": 0.22}, {"cell line": "LXF-289", "relative viability": 0.945}, {"cell line": "NCI-H23", "relative viability": 1.01}, {"cell line": "NCI-H1299", "relative viability": 0.988}, {"cell line": "NCI-H647", "relative viability": 1.04}, {"cell line": "CAL-12T", "relative viability": 0.667}, {"cell line": "NCI-H1651", "relative viability": 0.706}, {"cell line": "EPLC-272H", "relative viability": 0.916}, {"cell line": "NCI-H2228", "relative viability": 0.864}, {"cell line": "NCI-H1792", "relative viability": 0.849}, {"cell line": "NCI-H1355", "relative viability": 0.823}, {"cell line": "NCI-H3122", "relative viability": 1.1}, {"cell line": "NCI-H1437", "relative viability": 0.499}, {"cell line": "NCI-H1755", "relative viability": 0.984}, {"cell line": "NCI-H2023", "relative viability": 0.598}, {"cell line": "HCC-15", "relative viability": 0.944}, {"cell line": "NCI-H1793", "relative viability": 0.62}, {"cell line": "PC-14", "relative viability": 0.298}, {"cell line": "EKVX", "relative viability": 0.375}, {"cell line": "LC-2-ad", "relative viability": 1.05}, {"cell line": "NCI-H1563", "relative viability": 0.809}, {"cell line": "NCI-H1944", "relative viability": 0.768}, {"cell line": "NCI-H1975", "relative viability": 0.697}, {"cell line": "RERF-LC-KJ", "relative viability": 0.725}, {"cell line": "ABC-1", "relative viability": 0.801}, {"cell line": "NCI-H358", "relative viability": 0.453}, {"cell line": "NCI-H650", "relative viability": 0.802}, {"cell line": "PC-3 [JPC-3]", "relative viability": 0.439}]}]}
